Values after ≈ are worked out from the molar mass of the structure shown.
Tests used:
[1] = tested on: platelet aggregation; assay: in vitro inhibitory activity of platelet aggregation (ADP); format: cell-based, rabbit (Japanese domestic white male); details: Oryctolagus cuniculus, rabbit PRP, 10 μM ADP, 37° C., read-out: IC50 (minimum concentration which inhibited more than 50% of platelet aggregation)
Procedure: The in vitro platelet aggregation imhibiting activity of the compounds of the invention were examined by using rabbits. Blood was withdrawn from the ear vein of Japanese domestic white male rabbits weighing 2.5 to 3.5 kg. A mixture of a 3.8% trisodium citrate solution and the blood in a ratio of 1:9 was centrifuged at a speed of 1000 rpm for 10 minutes. The upper layer was separated as platelet-rich plasma (PRP). The lower layer was further centrifuged at a speed of 2800 rpm for 10 minutes. The upper layer was separated as platelet-poor plasma (PPP). The number of platelets was adjusted to 6×10^5 /μl to 7×10^5 /μl by diluting the PRP with PPP. 25 microliters of the test compounds prepared as shown below was added in an amount of 25 to 250 microliters of PRP after the adjustment, and the mixture was pre-incubated at 37° C. for 2 minutes, and then 10 μM (final) of ADP was added. By using an aggregometer, changes in transmission were recorded.
The drug was dissolved in ethanol to a concentration of 10 mg/ml, and successively diluted with phosphate buffer (pH 7.4) prior to use.
The rate of inhibition of platelet aggregation was determined from the following equation. [formula] To : the transmittance of the system containing the phosphate buffer, T: the transmittance of the sytem to which the test drug was added.
The minimum concentration of the drug which inhibited more than 50% of platelet aggregation was shown as an IC50 value.

[2] = tested on: blood pressure and heart beat rate of rats; assay: hypotensive activity and heart beat rate, intravenous injection in anesthetized rats; format: in vivo, male wister rats; details: Rattus norvegicus, i.v.; for ED (10% increase of heart rate): read-out: H-ED10 (dosage causing a 10% increase of the heart rate); for ED (20% lowering of blood pressure): read-out: P-ED20 (dosage causing a 20% lowering of the mean blood pressure)
Procedure: (1) The actions of the thiaprostaglandin E1 derivatives of the invention on the blood pressure and heart beat rate of rats were examined by intravenous injection under anesthesia. Male wister rats weighing about 250 g were used. Urethane (500 mg/kg) and α-chloralose (100 mg/kg) were intraperitoneally administered to the rats. The rats were anesthetized and fixed in place. Each of the test compounds was dissolved in a small amount of ethanol and diluted with physiological saline to adjust the final ethanol concentration to not more than 5%. The solution was intravenously injected into the rats through a catheter inserted into the femoral vein. The blood pressure of the rats was measured by a pressure transducer through a catheter inserted into the carotid artery of the rats. The heart beat rate was determined from the blood pressure pulse. The action of the test compound of the blood pressure was expressed as the dosage (p-ED20, μg/kg) of the test compound which caused a 20% lowering of the mean blood pressure before administration of the compound. The action of the test compound on the heart rate was expressed as the dosage (H-ED10, μg/kg) of the test compound which caused a 10% increase of the heart rate from the heart beat rate before administration of the test compound.

[3] = tested on: platelet aggregation; assay: extra vivo inhibitory activity of platelet aggregation after oral administration; format: in vivo, guinea pigs (Hartley strain); details: Cavia porcellus; for inhibition at 3 mg/kg: 3 mg/kg p.o.; for inhibition at 10 mg/kg: 10 mg/kg p.o.
Procedure: The extra vivo platelet aggregation inhibitory activity of the 7-thiaprostaglandin E1 derivatives of the invention were measured by using guinea pigs. A test drug prepared as a 30% ethanol solution of each of the compounds of the invention in ethanol diluted with physiological saline and as a control 30% ethanol solution were orally adminstered in a dose of 1 ml/kg to Hartleystrain guinea pigs having a body weight of 350 to 450 g which had been fasted for 17 hours. 1 hour or 4 hours after the administration of the compound, blood was drawn off by the cardiac puncture using trisodium citrate so that the ratio of the blood to 3.8% trisodium citrate was 9:1. The blood was centrifuged at a speed of 700 rpm for 10 minutes. The upper layer was separated as plateletrich plasma (PRP). The lower layer was further centrifuged at a speed of 2800 rpm for 10 minutes. The upper layer was separated as platelet poor plasma (PPP). 250 microliters of the resulting PRP was taken into an aggregometer cuvette, and incubated at 37° C. for 2 minutes. Then, 25 microliters of a […] ADP disodium solution adjusted by dissolving with 0.1M tris-HCl buffer (ph 8.0) was added. The aggregation curve was recorded for 3 minutes. The maximum degree of aggregation of platelets within this time period was read, and the rate of inhibitor of platelet aggregation was calculated from the following equation. [formula] TC : the transmittance of a control group (to which only the 30% ethanol solution was administered),
TD : the transmittance of a drug administered group.

Row | Structure (SMILES) | IC50 [1] [mg/L] | also measured
1 | CCCC(C)CC(O)/C=C/[C@H]1CCC(=O)[C@@H]1SCCCCCC(=O)OC (relative stereo) [reference compound] | > 100 | 
2 | O=C(CCCCCS[C@H]1C(=O)C[C@@H](O)[C@@H]1/C=C/[C@@H](O)C1CCCCC1)Oc1ccccc1 [Compound 144, 16,17,18,19,20-pentanor-15-cyclohexyl-7-thiaprostaglandin E1 phenyl ester] | 0.015 (≈ 0.0326 µM) | ED (10% increase of heart rate) [2]: 2.6 µg/kg; ED (20% lowering of blood pressure) [2]: 3.4 µg/kg; inhibition at 3 mg/kg ([3]; 1 hr): 37.4%; inhibition at 3 mg/kg ([3]; 4 hr): 3%; inhibition at 10 mg/kg ([3]; 1 hr): 85.4%; inhibition at 10 mg/kg ([3]; 4 hr): 79.2%
3 | CCCCC[C@H](O)/C=C/[C@H]1[C@H](SCCCCCC(=O)OC)C(=O)C[C@@H]1O [15-epi-ent of Compound 124] | 8.9 (≈ 23 µM) | 
4 | CCCC[C@@H](C)C[C@H](O)/C=C/[C@H]1[C@H](O)CC(=O)[C@@H]1SCCCCCC(=O)OC [Compound 134, 17(R),20-dimethyl-7-thiaprostaglandin E1 methyl ester] | 0.0018 (≈ 0.00434 µM) | 
5 | O=C(O)CCCCSC[C@H]1C(=O)C[C@@H](O)[C@@H]1/C=C/[C@@H](O)C1CCCCC1 [Compound 303, 16,17,18,19,20-pentanor-15-cyclohexyl-6-thiaprostaglandin E1] | 0.27 (≈ 0.702 µM) | 
6 | COC(=O)C(C)CCCCS[C@H]1C(=O)C[C@@H](O)[C@@H]1/C=C/[C@@H](O)C1CCCCC1 (stereo partly shown) [Compound 150, 16,17,18,19,20-pentanor-15-cyclohexyl-2-methyl-7-thiaprostaglandin E1 methyl ester] | 0.52 (≈ 1.26 µM) | inhibition at 10 mg/kg ([3]; 1 hr): 20.8%; inhibition at 10 mg/kg ([3]; 4 hr): 0.7%
7 | COC(=O)CCSCCC[C@H]1C(=O)C[C@@H](O)[C@@H]1/C=C/[C@@H](O)C1CCCCC1 [Compound 413] | 2.4 (≈ 6.02 µM) | 
8 | COC(=O)CCCCSC[C@H]1C(=O)C[C@@H](O)[C@@H]1/C=C/[C@@H](O)C1CCCCC1 [Compound 308, 16,17,18,19,20-pentanor-15-cyclohexyl-6-thiaprostaglandin E1 methyl ester] | 0.32 (≈ 0.803 µM) | 
9 | CCCC[C@H](C)C[C@H](O)/C=C/[C@H]1[C@H](O)CC(=O)[C@@H]1SCCC/C=C/C(=O)OC [Compound 160, 17(S),20-dimethyl-2,3-dehydro-7-thiaprostaglandin E1 methyl ester] | 0.64 (≈ 1.55 µM) | 
10 | O=C(CCCCCS[C@H]1C(=O)C[C@@H](O)[C@@H]1/C=C/[C@@H](O)C1CCCCC1)OCc1ccccc1 [Compound 147, 16,17,18,19,20-pentanor-15-cyclohexyl-7-thiaprostaglandin E1 benzyl ester] | 0.054 (≈ 0.114 µM) | inhibition at 10 mg/kg ([3]; 1 hr): 54%; inhibition at 10 mg/kg ([3]; 4 hr): 28.9%
11 | CCCCC[C@H](O)/C=C/[C@H]1[C@H](O)CC(=O)[C@@H]1CSCCCCC(=O)O [Compound 300, 6-thiaprostaglandin E1] | 0.45 (≈ 1.21 µM) | 
12 | O=C(O)CCCCCS[C@H]1C(=O)C[C@@H](O)[C@@H]1/C=C/[C@@H](O)C1CCCCC1 [Compound 111, 16,17,18,19,20-pentanor-15-cyclohexyl-7-thiaprostaglandin E1] | 0.004 (≈ 0.0104 µM) | ED (10% increase of heart rate) [2]: 2.5 µg/kg; ED (20% lowering of blood pressure) [2]: 1.17 µg/kg
13 | CCCCC[C@H](O)/C=C/[C@H]1[C@H](O)CC(=O)[C@@H]1SCCCCCC(=O)OC [Compound 124, 7-Thiaprostaglandin E1 methyl ester] | 0.47 (≈ 1.22 µM) | 
14 | CCCCCCCCCCOC(=O)CCCCCS[C@H]1C(=O)C[C@@H](O)[C@@H]1/C=C/[C@@H](O)C1CCCCC1 [Compound 143, 16,17,18,19,20-pentanor-15-cyclohexyl-7-thiaprostaglandin E1 decyl ester] | 0.058 (≈ 0.111 µM) | 
15 | COC(=O)/C=C/CCCS[C@H]1C(=O)C[C@@H](O)[C@@H]1/C=C/[C@@H](O)C1CCCCC1 [Compound 156, 16,17,18,19,20-pentanor-15-cyclohexyl-2,3-dehydro-7-thiaprostaglandin E1 methyl ester] | 0.091 (≈ 0.229 µM) | 
16 | CCCCC[C@H](O)/C=C/[C@H]1[C@H](O)CC(=O)[C@@H]1CSCCCCC(=O)OC [Compound 305, 6-thiaprostaglandin E1 methyl ester] | 6 (≈ 15.5 µM) | 
17 | CCCCC[C@H](O)/C=C/[C@H]1[C@H](O)CC(=O)[C@@H]1CCCSCCC(=O)OC [Compound 405, 4-thiaprostaglandin E1 methyl ester] | 8.6 (≈ 22.2 µM) | 
18 | COC(=O)CCCCCS[C@@H]1C(=O)C[C@H](O)[C@H]1/C=C/[C@@H](O)C1CCCCC1 [15-epi-ent of Compound 138] | 0.11 (≈ 0.276 µM) | 
19 | CCCC[C@H](C)C[C@H](O)/C=C/[C@H]1[C@H](O)CC(=O)[C@@H]1SCCCCCC(=O)OC [Compound 131, 17(S),20-dimethyl-7-thiaprostaglandin E1 methyl ester] | 0.0006 (≈ 0.00145 µM) | ED (10% increase of heart rate) [2]: 0.83 µg/kg; ED (20% lowering of blood pressure) [2]: 2.3 µg/kg; inhibition at 3 mg/kg ([3]; 1 hr): 100%

— patent publication US4466980A, “Thiaprostaglandin E1 derivatives, process for production thereof, and pharmaceutical use thereof” (Teijin Limited, priority 1980, dated 1984)
